For this experiment, the system named is HuBEC cells. The experiment is described as follows: Uptake of BODIPY-labeled exosomes by HuBEC (light microscopy). It counts as cell-based, human. As to conditions: HuBEC pre-treated with 200 μM Genistein, 37° C., 30 minutes, then BODIPY-labeled MSC-derived CFZF-VPR exosomes 3 h. On the procedure: FIGS. 7A-7B show exosome uptake inhibition. FIG. 7A: To study the pathway of exosome uptake, HuBEC cells were pre-treated with 200 μM of Genistein and incubated at 37° C. for 30 minutes before exosome addition, and then incubated with BODIPY-labeled exosomes at 37° C. for 3 h. FIG. 7B: Uptake was quantified by determining the percentage of BODIPY-fluorescence intensity.
Exosome labeling. Exosomal membrane was labeled with BODIPY TR ceramide, according to the manufacturer's protocol (Molecular Probes/Invitrogen Life Technologies, Carlsbad, California, USA). Briefly, 5e+10 exosomes were stained with 10 μmol/L BODIPY TR ceramide. Excess fluorescent dye was removed by using Exosome Spin Columns (Life Technologies, Carlsbad, California, USA). BODIPY-labeled exosomes were dropped on 10e+3 cells and incubated in exosome depleted medium at 37° C. and 5% CO2. Bodipy-labeled exosomes uptake was evaluated by light microscopy.
Light microscopy and imaging. Cells were cultivated fixed with BD cytofix/Cytoperm™ fixation/permeabilization Kit (Cat. No. 554715 BD bioscience, Franklin Lakes, NJ, USA) at room temperature for 20 minutes and then stained with fluorescent 488-Phalloidin (green) for actin using the manufacturer's recommendations (Molecular Probes/Invitrogen Life Technologies). Fluorescence images were collected on Zeiss LSM-700 confocal microscope. […]

In the case of `O=c1c(-c2ccc(O)cc2)coc2cc(O)cc(O)c12` [genistein], the “inhibition of exosome uptake (BODIPY-fluorescence intensity)” value is “inhibition of the MSC derived CFZF-VPR exosome uptake”.
